# In patent publication US5861395A, “Compounds useful for inhibition of farnesyl proteins transferase” (Schering Corporation, priority 1997, dated 1999):
# Several values for one entry are separate records, joined by “and”; a condition that tells them apart may be missing. Identical values can stand only once. Like-named read-outs stand apart in the source and are kept apart here.
# How the values were obtained:
# Human tumor cells = assay: Soft Agar Assay (anchorage-independent growth); format: cell-based; settings: Homo sapiens, Table 4; colonies after 10-16 days at 37° C.
# Experimental: Soft Agar Assay: Anchorage-independent growth is a characteristic of tumorigenic cell lines. Human tumor cells are suspended in growth medium containing 0.3% agarose and an indicated concentration of a farnesyl transferase inhibitor. The solution is overlayed onto growth medium solidified with 0.6% agarose containing the same concentration of farnesyl transferase inhibitor as the top layer. After the top layer is solidified, plates are incubated for 10-16 days at 37° C. under 5% CO2 to allow colony outgrowth. […] Colonies can be counted and the IC50 's can be determined.
# COS Cell = COS Cell IC50 (Cell-Based Assay)
# Experimental: (§1) FPT IC50 (inhibition of farnesyl protein transferase, in vitro enzyme assay), GGPT IC50 (inhibition of geranylgeranyl protein transferase, in vitro enzyme assay) and COS Cell IC50 (Cell-Based Assay) were determined following the assay procedures described in WO 95/10516, published Apr. 20, 1995. Cell Mat Assay, and anti-tumor activity (in vivo anti-tumor studies) could be determined by the assay procedures described in WO 95/10516. The disclosure of WO 95/10516 is incorporated herein by reference thereto.
# [1] = target: farnesyl protein transferase (K-ras) (Homo sapiens, UniProt P49354+P49356); assay: FPT IC50 (K-ras), in vitro enzyme assay; format: biochemical
# Experimental: as §1
# [2] = target: farnesyl protein transferase (H-ras) (Homo sapiens, UniProt P49354+P49356); assay: FPT IC50 (H-ras), in vitro enzyme assay; format: biochemical
# Experimental: as §1
# [3] = target: T1, geranylgeranyl protein transferase (Rattus norvegicus, UniProt P53610+Q04631); assay: GGPT IC50 (inhibition of geranylgeranyl protein transferase, in vitro enzyme assay); format: biochemical
# T1 construct: from tissue; host or cells: rat brain (own knowledge of the cited WO 95/10516)
# Experimental: as §1
# [4] = target: farnesyl protein transferase; assay: FPT IC50 (inhibition of farnesyl protein transferase, in vitro enzyme assay); format: biochemical; settings: Table 2
# Excerpt: In Table 2 "Ex. No." stands for "Example Number". In Table 2, FPT IC50 results are less indicated otherwise.
Structure (SMILES),IC50 (Human tumor cells) [nM],IC50 (COS Cell; Table 4) [nM],IC50 [1] [nM],IC50 [2],IC50 (COS Cell; Table 2) [nM],IC50 ([1]; Table 2) [nM],IC50 [3] [nM],IC50 [4] [nM]
N#CN1CCC(CC(=O)N2CCC([C@H]3c4ncc(Br)cc4CCc4cc(Cl)cc(Br)c43)CC2)CC1 [Compound 98.0-B],100,12,17,2.3 nM and 2.4 nM,–,–,–,–
"N=C(Oc1ccccc1)N1CCC(CC(=O)N2CCN(C3c4ccc(Cl)cc4CCc4cc(Br)cnc43)CC2)CC1 (centres unmarked) [Example 3, PHENYL 4-[2-[4-(3-BROMO-8-CHLORO-6,11-DIHYDRO-5 H-BENZO[5,6]CYCLOHEPTA1,2-b]PYRIDIN-11-YL)-1-PIPERAZINYL]-2-OXOETHYL-1-PIPERIDINECARBOXIMIDATE]",–,–,–,290 nM,–,–,–,–
N=C(NCc1cccnc1)N1CCC(CC(=O)N2CCC(C3c4ccc(Cl)c(Br)c4CCc4cc(Br)cnc43)CC2)CC1 (centres unmarked) [Example 29],–,–,–,–,> 1000,782,7500,11
O=C(CC1CCN(C(=O)N2CCOCC2)CC1)N1CCC([C@H]2c3ncc(Br)cc3CCc3cc(Cl)cc(Br)c32)CC1 [Compound 100.0-B],380,< 10,–,5.5 nM,–,–,–,–
N=C(Oc1ccccc1)N1CCC(CC(=O)N2CCC([C@H]3c4ncc(Br)cc4CCc4cc(Cl)cc(Br)c43)CC2)CC1 [Example 25],200,24,46,–,24,–,–,8.8
CC(=O)OC[C@H]1O[C@@H](NC(=S)N2CCC(CC(=O)N3CCC([C@H]4c5ncc(Br)cc5CCc5cc(Cl)cc(Br)c54)CC3)CC2)[C@H](OC(C)=O)[C@@H](OC(C)=O)[C@@H]1OC(C)=O [Compound 4.0-B],–,1000,29,12 nM,–,–,–,–
